The source of these data is paper PMC10888562 (International Journal of Molecular Sciences, 2024).

Read-outs that look alike come from different tables or passages of the source.

The subject of data set [1] is SJ-G2 glioblastoma. Also on record: method as in PMID 36142383, PMID 37173934, PMID 36296713. Particulars: cited from earlier work.
For data set [2], the system named is A2780 ovarian. The arrangement: method as in PMID 36142383, PMID 37173934, PMID 36296713. Particulars: cited from earlier work.
The test system of data set [3] is multiple human cell lines. Also on record: method as in PMID 36142383, PMID 37173934, PMID 36296713. Particulars: average over all cell lines; cited from earlier work.
Data set [4] has as its system A431 skin. The arrangement: method as in PMID 36142383, PMID 37173934, PMID 36296713. Particulars: cited from earlier work.
Data set [5] concerns U87 glioblastoma. Put plainly: MTT cell viability assay (GI50), U87. It counts as cell-based, human. Particulars: for SCI: GI50 (MCF10A)/GI50 (U87); for GI50: U87 glioblastoma, MTT. Background: Formazan colour is commonly taken as a measure of viable cells.
The subject of data set [6] is HT29 colon. The data set is described as follows: MTT cell viability assay (GI50), HT29. The format is cell-based, human. Particulars: for SCI: GI50 (MCF10A)/GI50 (HT29); for GI50: MTT.
For data set [7], the system named is MCF-7 breast. The arrangement: method as in PMID 36142383, PMID 37173934, PMID 36296713. Particulars: cited from earlier work.
The test system of data set [8] is A431 skin. Put plainly: MTT cell viability assay (GI50), A431. The format is cell-based, human. Particulars: for SCI: GI50 (MCF10A)/GI50 (A431); for GI50: A431 skin, MTT.
Data set [9] concerns histone deacetylase (HDAC). The data set is described as follows: Fluorometric HDAC activity assay on extracts of treated HT29 cells. The format is cell-based, human. Particulars: HT29 colon cells treated 72 h at GI50 concentration; lower RFU = decline in HDAC activity; HT29 extract control 5154 ± 40. As for the experimental part:
All values are expressed as RFU.
To study the HDAC activity in HT29 treated cells, a Fluorometric HDAC Activity Assay Kit ab156064 (Abcam, Cambridge, MA, USA) was used and all sample preparations were made based on the manufacturer’s protocol. A total of 10^6 cells/mL of HT29 cells were seeded in DMEM with serum deprivation for 18 h to synchronise the cells. […] Cells were then washed with cold PBS and resuspended in lysis buffer (10 mM Tris HCl (pH 7.5), 10 mM NaCl, 15 mM MgCl2, 250 mM sucrose, 0.5% NP-40 and 0.1 mM EGTA) and lysed on ice for 20 min. Cells were centrifuged through 4 mL of sucrose cushion (30% sucrose, 10mM Tris HCl (pH 7.5), 10 mM NaCl and 3mM MgCl2) at 1300× g for 10 min at 4 °C. Supernatant was discarded and the pellet was washed and resuspended in extraction buffer (50 mM HEPES-KOH (pH 7.5), 420 mM NaCl, 0.5 mM EDTA 2Na, 0.1 mM EGTA and 10% glycerol) and then sonicated for 30 s. Nuclei were lysed for 30 min on ice and centrifuged at 20,000× g for 30 min. The supernatant was collected, and the samples were prepared for the fluorometric assay according to the manufacturer’s protocol (Histone Deacetylase (HDAC) Activity Assay Fluorometric Kit ab156064, Abcam). The changes in the relative fluorescence intensity (expressed as RFU) were recorded each minute over 60 min using the Glo-Max®-Multimode microplate reader (Promega Corporation, Alexandra, VIC, Australia) at an excitation/emission of 355/460 nm.

The subject of data set [10] is cisplatin-resistant ADDP ovarian variant. Put plainly: MTT cell viability assay (GI50), ADDP. It counts as cell-based, human. Particulars: for SCI: GI50 (MCF10A)/GI50 (ADDP); for GI50: cisplatin-resistant ADDP ovarian variant, MTT.
Data set [11] deals with H460 lung. Also on record: method as in PMID 36142383, PMID 37173934, PMID 36296713. Particulars: cited from earlier work.
The test system of data set [12] is U87 glioblastoma. Also on record: method as in PMID 36142383, PMID 37173934, PMID 36296713. Particulars: cited from earlier work.
Data set [13] concerns HT29 colon. Also on record: method as in PMID 36142383, PMID 37173934, PMID 36296713. Particulars: cited from earlier work.
The subject of data set [14] is BE2-C neuroblastoma. The arrangement: method as in PMID 36142383, PMID 37173934, PMID 36296713. Particulars: cited from earlier work.
For data set [15], the system named is BE2-C neuroblastoma. The data set is described as follows: MTT cell viability assay (GI50), BE2-C. The format is cell-based, human. Particulars: for SCI: GI50 (MCF10A)/GI50 (BE2-C); for GI50: BE2-C neuroblastoma, MTT.
In data set [16] the test system is non-tumour-derived MCF10A breast line. Particulars: for GI50: MCF10A non-tumour-derived breast, MTT.
Data set [17] is described as follows: Stability in PBS monitored by analytical HPLC. The format is physicochemical. Particulars: PBS pH ~7.4, ~10 mM, 37 °C, one week, HPLC at 254 nm. The procedure:
The stability of P-5B3A, 5-5B3A and 56-5B3A was monitored via analytical HPLC.
The stability of P-5B3A, 5-5B3A and 56-5B3A were measured at 254 nm. Each complex was incubated in aqueous phosphate-buffered saline (PBS) solution (pH ~7.4) (total sample concentration, ~10 mM) at 37 °C for one week. Analytical HPLC was utilised to monitor the experiments.

For data set [18], the system named is multiple human cell lines. Put plainly: MTT cell viability assay, all cell lines (mean/range of GI50). Particulars: for fold decrease of average GI50 relative to the platinum(IV) scaffold: average GI50 of scaffold vs 5B3A derivative, all cell lines; for GI50: average over all cell lines. The format is cell-based.
Data set [19] can be described thus: Solubility in d.i.H2O. The format is physicochemical. Particulars: room temperature. The procedure:
The solubility of P-5B3A, 5-5B3A and 56-5B3A was tested in d.i.H2O at room temperature. Small aliquots of d.i.H2O were titrated into an Eppendorf tube containing 1 mg of each complex until full dissolution. For every titration, each sample solution was vortexed and sonicated.

A short description of data set [20]: Lipophilicity by analytical HPLC (log kw). It counts as physicochemical. The source says: The order of complexes by increasing lipophilicity is P-5B3A < 5-5B3A < 56-5B3A (Table 2 and Figure S27). It can be deduced that increasing methylation on the heterocyclic ligand increased lipophilicity. This trend agrees with published data. The determined log kw values are consistent and within the range of the log kw values determined for similar complexes reported in the literature.
Lipophilicity measurements were completed via analytical HPLC, as previously reported.

Data set [21] has as its system Du145 prostate. Put plainly: MTT cell viability assay (GI50), Du145. The format is cell-based, human. Particulars: for fold more potent than carboplatin / fold more potent than cisplatin / fold more potent than oxaliplatin: GI50 ratio; for GI50: MTT; for SCI: GI50 (MCF10A)/GI50 (Du145).

As to `N.N.[Cl][Pt][Cl]` [Cisplatin, cis-diammineplatinum(II) dichloride], the GI50 (usually the concentration at which growth is held to half of that of the control) was 400 ± 100 nM in data set [1]; 1000 ± 100 nM in data set [2]; 5840 ± 610 nM in [3]; 2400 ± 300 nM in data set [4]; 6500 ± 800 nM in data set [7]; 900 ± 200 nM in data set [11]. The GI50 in data set [12] is 3800 ± 1100 nM; in data set [13], 11300 nM; in data set [14] it was 1900 ± 200 nM. Moreover, the SCI in data set [5] came to 1.37; in [6], 0.46; in [8], 2.17; in data set [10], 0.19; in data set [15] it was 2.74. Further, the “HDAC Inhibition at 72 h” value in data set [9] amounted to 3698 ± 59 RFU.

On to “[Pt^IV(5,6-Me2phen)(SS-DACH)(5B3A)(OH)]^2+ [56-5B3A]”, for which the GI50 turned out to be 3.3 ± 0.9 nM in [16]; 42 ± 7 nM in [18]; 88 ± 7 nM in data set [5]; 4.4 ± 1.6 nM in data set [6] (HT29 colon); 33 ± 8.4 nM in [8]; 6 ± 3 nM in data set [10]. The GI50 in [21] (Du145 prostate) came to 1.2 ± 0.6 nM; in data set [15] it was 150 ± 24 nM. In addition, in data set [17], the Stability result is listed as “adequately stable in aqueous solution for up to 1 week”. Further, the “fold decrease of average GI50 relative to the platinum(IV) scaffold” value in data set [18] stood at 3.6 fold. Moreover, the SCI is 0.04 in data set [5]; 0.75 in [6]; 0.10 in data set [8]; 0.55 in [10]; 2.75 in data set [21]; 0.02 in [15]. In addition, the Solubility (usually the dissolved amount per volume that the medium holds) in data set [19] is 4000 µg/mL. Moreover, in data set [20], the “log kw Values” worked out at 2.11. In addition, the “HDAC Inhibition at 72 h” value in data set [9] was 2550 ± 57 RFU. Besides, the “fold more potent than 56MESS” value in data set [10] (ADDP) is reported as 0.5 fold; in data set [21] (Du145 prostate) it was 0.3 fold. Further, in [21] (Du145 prostate), the “fold more potent than carboplatin” value is listed as ≥ 12,500 fold. Further, in data set [21] (Du145 prostate), the “fold more potent than cisplatin” value is recorded as 1000 fold. Moreover, the “fold more potent than oxaliplatin” value in data set [21] (Du145 prostate) is reported as “at least 2400 fold”.

Regarding “[Pt^IV(5-Mephen)(SS-DACH)(5B3A)(OH)]^2+ [5-5B3A]”, the GI50 was found to be 19 ± 1.5 nM in data set [16]; 104 ± 12 nM in [18]; 240 ± 23 nM in data set [5]; 18 ± 0.67 nM in [6] (HT29 colon); 93 ± 8 nM in data set [8]; 23 ± 0.88 nM in data set [10]. For the same molecule, the GI50 in data set [21] (Du145 prostate) worked out at 10 ± 2 nM; in data set [15], 340 ± 40 nM. Besides, in [17], the Stability result is on record as “adequately stable in aqueous solution for up to 1 week”. In addition, the “fold lower average GI50 than 5MESS” value in [18] (average GI50, all cell lines) is “approximately 0.9 fold”. Besides, the “fold decrease of average GI50 relative to the platinum(IV) scaffold” value in data set [18] came to 4 fold. The SCI in data set [5] is 0.08; in data set [6], 1.06; in [8], 0.20; in [10], 0.83; in data set [21], 1.90; in [15], 0.06. Also, the “fold more potent than cisplatin” value in data set [6] (HT29 colon, GI50 ratio) was ~630 fold; in [10] (ADDP, GI50 ratio) it was ~1220 fold; in [21] (Du145 prostate), 120 fold. Besides, the Solubility in data set [19] turned out to be 6000 µg/mL. In addition, the “log kw Values” in data set [20] amounted to 1.91. The “HDAC Inhibition at 72 h” value in [9] was found to be 2791 ± 72 RFU. The “fold more potent than carboplatin” value in data set [21] (Du145 prostate) turned out to be 1500 fold. In addition, the “fold more potent than oxaliplatin” value in data set [21] (Du145 prostate) worked out at 290 fold.

As to “[Pt^IV(phen)(SS-DACH)(5B3A)(OH)]^2+ [P-5B3A]”, the “fold difference in cytotoxicity versus PHENSS” value in data set [16] was 0.9 fold. For the same molecule, the GI50 in data set [16] was determined as 280 ± 39 nM; in data set [18], 2080 ± 703 nM; in data set [5], 1900 ± 150 nM; in data set [6] (HT29 colon) it was 200 ± 27 nM; in data set [8], 1200 ± 100 nM; in data set [10] it was 330 ± 8.8 nM. The values for the GI50 in data set [21] (Du145 prostate) and in data set [15] were 190 ± 23 nM and 13000 nM, respectively. In addition, the Stability entry in data set [17] is on record as “adequately stable in aqueous solution for up to 1 week”. Further, in data set [18] (average GI50, all cell lines), the “fold larger average GI50 than 5-5B3A” value is 20 fold. Further, the “fold larger average GI50 than 56-5B3A” value in data set [18] (average GI50, all cell lines) came out at 50 fold. In addition, in [18], the “fold decrease of average GI50 relative to the platinum(IV) scaffold” value was ~1.6 fold. Moreover, the SCI in [5] is given as 0.15; in data set [6], 1.40; in [8], 0.23; in [10], 0.85; in data set [21], 1.47; in [15] it was 0.02. For the same molecule, the “fold more potent than carboplatin” value is given as ≥ 250 fold in [6] (HT29 colon, GI50 ratio) and 152 fold in data set [10] (ADDP, GI50 ratio). The “fold more potent than cisplatin” value is “at least 57 fold” in [6] (HT29 colon, GI50 ratio) and “at least 85 fold” in data set [10] (ADDP, GI50 ratio). Also, the “fold more potent than oxaliplatin” value in data set [6] (HT29 colon, GI50 ratio) is reported as ≥ 5 fold. The same molecule gave a Solubility in data set [19] of 7000 µg/mL. Besides, the “log kw Values” in data set [20] stood at 1.82. The “HDAC Inhibition at 72 h” value in data set [9] is on record as 3620 ± 35 RFU.
